# Values joined by “and” are separate entries in the source; they are usually repeats but may differ in a detail not shown here. Equal values may be shown once. Where a name gives a salt, the structure may show the parent alone. Read-outs that look alike come from different tables or passages of the source.
# Tests used:
# SUDHL5 [1] = assay: Induction of caspase-3/7 activity (Caspase-Glo 3/7), SUDHL5; type: cell-based; settings: caspase-3/7 induction, SUDHL5 cells, 3 h treatment, median
# Procedure, shortened: (§1)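 DLBCL lines SUDHL5 and SUDHL10 treated with compounds for 3 h at 37 °C; caspase-3/7 activity read by Caspase-Glo 3/7 luminescence. Medium-only background subtracted; EC50 fitted with bottom fixed at 1 and top fixed at the reference compound's maximal induction.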
# SUDHL10 [2] = assay: Induction of caspase-3/7 activity (Caspase-Glo 3/7), SUDHL10; type: cell-based; settings: caspase-3/7 induction, SUDHL10 cells, 3 h treatment, median
# Procedure, shortened: as §1
# SUDHL5 [3] = assay: Induction of cytotoxicity (CellTiter-Glo, 5 h), SUDHL5
# A2780 = assay: Anti-proliferative effect (CellTiter-Glo, 72 h), A2780; type: cell-based; settings: A2780 cells, median, read-out: IC50 antiproliferation assay A2780 [M] (median)
# Procedure, shortened: (§2)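 72 h compound treatment, 37 °C humidified; CellTiter-Glo added, 10 min incubation, luminescence read; day 0 plate read in parallel for baseline.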
# SUDHL10 [4] = assay: Induction of cytotoxicity (CellTiter-Glo, 5 h), SUDHL10
# OPM2 = assay: Anti-proliferative effect (CellTiter-Glo, 72 h), OPM2; type: cell-based; settings: OPM2 cells, median, read-out: IC50 antiproliferation assay OPM2 [M] (median)
# Method: Assessment of the Anti-Proliferative Effect of Compounds in Different Cell Lines
# The impact of compounds on the proliferation of different cell lines was assessed using the CellTiter-Glo® Luminescent Cell Viability reagent from Promega (G7573). Of note, SUDHL10 and SUDHL5 (DLBCL), NCI-H929 (Multiple Myeloma), A2780 (ovarian carcinoma) as well as MV-4-11(AML) cells are sensitive to MCL-1 inhibition.
# In parallel, cells were plated in a reference (day 0) plate for time zero determination.
# Rim wells were excluded. The cells were incubated for 72 h hours in a humidified incubator at 37° C. The day 0 plate was measured by adding 30 μl/well of CTG solution (CellTiter-Glo® Luminescent Cell Viability reagent, Promega G7573) to time zero wells in the reference plate followed by a 10 minutes incubation and luminescence reading at 0.1 ms, using the PHERAstar FS microplate reader (BMG Labtech).
# After 72 h incubation, the treated plates were measured in the same way as the day 0 plate mentioned above.
# MCL-1 = MCL-1 (Homo sapiens, UniProt Q07820); assay: Protein-protein interaction assay MCL-1/Noxa BH3 peptide (MCL-1 assay), TR-FRET; type: binding; settings: MBP-MCL-1 / Noxa BH3-derived peptide, median
# Procedure, shortened: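 IC50 came from a 4-parameter fit of the normalized 665/620 nm TR-FRET ratio (anti-MBP Eu-cryptate/streptavidin-XL665). Compounds (0.1 nM–20 μM, duplicates) were preincubated 10 min at 22 °C with 1 nM MBP-MCL-1 in pH 7 Tris/NaCl/KF buffer, then read after 1 h at 22 °C plus overnight at 4 °C.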
# SUDHL10 [5] = assay: Anti-proliferative effect (CellTiter-Glo, 72 h), SUDHL10; type: cell-based; settings: SUDHL10 cells, antiproliferation, 72 h incubation, median, read-out: Antiproli SUDHL10 [M] (median)
# Procedure, shortened: as §2
# SUDHL5 [6] = assay: Anti-proliferative effect (CellTiter-Glo, 72 h), SUDHL5; type: cell-based; settings: SUDHL5 cells, antiproliferation, 72 h incubation, median, read-out: Antiproli SUDHL5 [M] (median)
# Procedure, shortened: as §2
# [7] = read-out: Cytotox SUDHL5 [M] (median), SUDHL5 cells, cytotoxicity induction, CellTiter-Glo, 5 h incubation, median
# [8] = read-out: Cytotox SUDHL10 [M] (median), SUDHL10 cells, cytotoxicity induction, CellTiter-Glo, 5 h incubation, median
# [9] = Homo sapiens, SU-DHL10, 5 h, read-out: Cytotox SUDHL10 [M] (median), SUDHL10 cells, cytotoxicity induction, CellTiter-Glo, 5 h incubation, median
# MCL-1, sequence (Q07820 whole entry): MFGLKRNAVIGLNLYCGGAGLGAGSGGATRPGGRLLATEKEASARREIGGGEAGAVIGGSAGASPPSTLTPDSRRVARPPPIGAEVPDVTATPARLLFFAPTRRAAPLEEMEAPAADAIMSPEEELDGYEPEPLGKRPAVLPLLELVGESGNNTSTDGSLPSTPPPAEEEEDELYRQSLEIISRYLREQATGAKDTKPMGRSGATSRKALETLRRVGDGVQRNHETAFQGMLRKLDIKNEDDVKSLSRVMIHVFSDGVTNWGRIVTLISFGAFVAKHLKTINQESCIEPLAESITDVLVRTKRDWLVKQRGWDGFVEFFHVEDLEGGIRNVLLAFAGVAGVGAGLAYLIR
SMILES,EC50 (SUDHL5 [1]) [µM],EC50 (SUDHL10 [2]) [µM],IC50 (A2780) [M],IC50 (MCL-1) [µM],IC50 (SUDHL10 [5]),"IC50 (A2780; Homo sapiens, A2780, 72 h) [M]","EC50 (SUDHL5 [1]; Homo sapiens, SU-DHL-5, 3 h) [µM]","EC50 (SUDHL10 [2]; Homo sapiens, SU-DHL10, 3 h) [µM]","IC50 (SUDHL10 [5]; Homo sapiens, SU-DHL10, 72 h) [M]","IC50 (SUDHL5 [6]; Homo sapiens, SU-DHL-5, 72 h) [M]",IC50 (SUDHL5 [6]) [M],IC50 (SUDHL5 [3]; [7]) [M],IC50 (SUDHL10 [4]; [8]) [M],IC50 (OPM2) [M],"IC50 (SUDHL5 [3]; Homo sapiens, SU-DHL-5, 5 h, read-out: Cytotox SUDHL5 [M] (median), SUDHL5 cells, cytotoxicity induction, CellTiter-Glo, 5 h incubation, median)",IC50 (SUDHL10 [4]; [9]) [M],"IC50 (OPM2; Homo sapiens, OPM-2, 72 h) [M]"
"COCC(=O)N1CCN(c2ccc(OCc3nn(C)c4c3-c3cccc5c(CCCOc6cccc7ccccc67)c(C(=O)O)n(c35)CCCCOC4)cc2)CC1 (single isomer, unassigned; enantiomer 1) [Example 1-28, 3-({4-[4-(methoxyacetyl)piperazin-1-yl]phenoxy}methyl)-1-methyl-7-[3-(naphthalen-1-yloxy)propyl]-1,10,11,12,13,15-hexahydropyrazolo[4′,3′:9,10][1,6]oxazacycloundecino[8,7,6-hi]indole-8-carboxylic Acid (Enantiomer 1)]",> 33,> 33,,0.0709,,3.12e-05,,,,,,> 3.3e-05,> 3.3e-05,1.98e-05,,,
"CC(=O)N1CCN(c2ccc(OCc3nn(C)c4c3-c3cccc5c(CCCOc6cccc7ccccc67)c(C(=O)O)n(c35)CCCCOC4)cc2)CC1 (single isomer, unassigned; enantiomer 1) [Example 1-25, 3-{[4-(4-acetylpiperazin-1-yl)phenoxy]methyl}-1-methyl-7-[3-(naphthalen-1-yloxy)propyl]-1,10,11,12,13,15-hexahydropyrazolo[4′,3′:9,10][1,6]oxazacycloundecino[8,7,6-hi]indole-8-carboxylic Acid (Enantiomer 1)]",1.61,3.89,,0.131,,1.7e-05,,,,2.86e-05,,2.68e-06,4.02e-06,1.08e-05,,,
"CC(=O)N1CCN(c2ccc(OCc3nn(C)c4c3-c3cccc5c(CCCOc6cccc7ccccc67)c(C(=O)O)n(c35)CCCCOC4)cc2)CC1 (single isomer, unassigned; enantiomer 2) [Example 1-26, 3-{[4-(4-acetylpiperazin-1-yl)phenoxy]methyl}-1-methyl-7-[3-(naphthalen-1-yloxy)propyl]-1,10,11,12,13,15-hexahydropyrazolo[4′,3′:9,10][1,6]oxazacycloundecino[8,7,6-hi]indole-8-carboxylic Acid (Enantiomer 2)]",> 33,> 33,2.48e-05,0.00163,,,,,,,,> 3.3e-05,> 3.3e-05,2e-06,,,
"Cc1ccc2c(CCCOc3cccc4ccccc34)c(C(=O)O)n3c2c1-c1c(C)nn(C)c1COCCCC3 (single isomer, unassigned; enantiomer 2) [Example 029, 1,3,4-trimethyl-7-[3-(naphthalen-1-yloxy)propyl]-1,10,11,12,13,15-hexahydropyrazolo[4′,3′:9,10][1,6]oxazacycloundecino[8,7,6-hi]indole-8-carboxylic acid-N-ethylethanamine Salt (Enantiomer 2)]",> 33,> 33,2.01e-05,0.22,1.38e-05 M,,,,,,1.82e-05,> 3.3e-05,> 3.3e-05,,,,

# More lines, main results first:
EC50 (SUDHL5 [1]) [µM],EC50 (SUDHL10 [2]) [µM],IC50 (A2780) [M],IC50 (MCL-1) [µM],IC50 (SUDHL10 [5]),"IC50 (A2780; Homo sapiens, A2780, 72 h) [M]","EC50 (SUDHL5 [1]; Homo sapiens, SU-DHL-5, 3 h) [µM]","EC50 (SUDHL10 [2]; Homo sapiens, SU-DHL10, 3 h) [µM]","IC50 (SUDHL10 [5]; Homo sapiens, SU-DHL10, 72 h) [M]","IC50 (SUDHL5 [6]; Homo sapiens, SU-DHL-5, 72 h) [M]",IC50 (SUDHL5 [6]) [M],SMILES,IC50 (SUDHL5 [3]; [7]) [M],IC50 (SUDHL10 [4]; [8]) [M],IC50 (OPM2) [M],"IC50 (SUDHL5 [3]; Homo sapiens, SU-DHL-5, 5 h, read-out: Cytotox SUDHL5 [M] (median), SUDHL5 cells, cytotoxicity induction, CellTiter-Glo, 5 h incubation, median)",IC50 (SUDHL10 [4]; [9]) [M],"IC50 (OPM2; Homo sapiens, OPM-2, 72 h) [M]"
> 33,> 33,> 3.3e-05,0.041,1.17e-05 M,,,,,,,"Cc1c2c(nn1CCN1CCOCC1)COCCCCn1c(C(=O)O)c(CCCOc3cccc4ccccc34)c3cccc-2c31 (single isomer, unassigned; enantiomer 2) [Example 055, 3-methyl-2-[2-(morpholin-4-yl)ethyl]-7-[3-(naphthalen-1-yloxy)propyl]-2,10,11,12,13,15-hexahydropyrazolo[4′,3′:9,10][1,6]oxazacycloundecino[8,7,6-hi]indole-8-carboxylic acid-N-ethylethanamine Salt (Enantiomer 2)]",> 3.3e-05,> 3.3e-05,> 3.3e-05,,,
,,,2.31,,> 3.3e-05,> 33,> 33,> 3.3e-05,,,"COc1cc2cc(c1)-c1cccc3c(CCCOc4cccc5ccccc45)c(C(=O)O)n(c13)CCOCCO2 (racemic) [Example 1-119, (rac)-12-Methoxy-1-[3-(1-naphthyloxy)propyl]-4,5,7,8-tetrahydro-10,14-(metheno)[1,4,7]dioxazacyclotetradecino[9,8,7-hi]indole-2-carboxylic Acid]",,,,> 3.3e-05,> 3.3e-05,> 3.3e-05
6.15,8.47,,0.00943,9.23e-06 M and 1.76e-05 M,1.22e-05,,,,,,"COC1(c2ccc(OCc3nn(C)c4c3-c3cccc5c(CCCOc6cccc7ccccc67)c(C(=O)O)n(c35)CCCCOC4)cc2)CCOCC1 (single isomer, unassigned) [Example 1-66, 3-{[4-(4-methoxytetrahydro-2H-pyran-4-yl)phenoxy]methyl}-1-methyl-7-[3-(naphthalen-1-yloxy)propyl]-1,10,11,12,13,15-hexahydropyrazolo[4′,3′:9,10][1,6]oxazacycloundecino[8,7,6-hi]indole-8-carboxylic Acid]",,,,,,1.18e-05
,,,0.0269,,2.87e-05,> 33,> 33,,,,"CC(C)OCc1nn(C)c2c1-c1cccc3c(CCCOc4cccc5ccccc45)c(C(=O)O)n(c13)C/C=C\COC2 (racemic) [Example 1-68, (rac)-(11Z)-1-methyl-7-[3-(naphthalen-1-yloxy)propyl]-3-[(propan-2-yloxy)methyl]-1,10,13,15-tetrahydropyrazolo[4′,3′:9,10][1,6]oxazacycloundecino[8,7,6-hi]indole-8-carboxylic Acid]",,,,,,> 3.3e-05
> 33,> 33,1.82e-05,0.0427,7.58e-06 M,,,,,,1.79e-05,"O=C(O)c1c(CCCOc2cccc3ccccc23)c2cccc3c2n1CCCCOCc1nn2c(c1-3)OCCC2 (single isomer, unassigned) [Example 249, 1-[3-(naphthalen-1-yloxy)propyl]-4,5,6,7,13,14-hexahydro-9H,12H-[1,3]oxazino[3″,2″:1′,5′]pyrazolo[4′,3′:9,10][1,6]oxazacycloundecino[8,7,6-hi]indole-2-carboxylic Acid]",> 3.3e-05,> 3.3e-05,,,,
> 33,,,0.174,,> 3.3e-05,,> 33,4.44e-06,,2.44e-06,"Cn1nc(COc2cncnc2)c2c1COCCCCn1c(C(=O)O)c(CCCOc3cccc4ccccc34)c3cccc-2c31 (single isomer, unassigned) [Example 211, 1-methyl-7-[3-(naphthalen-1-yloxy)propyl]-3-[(pyrimidin-5-yloxy)methyl]-1,10,11,12,13,15-hexahydropyrazolo[4′,3′:9,10][1,6]oxazacycloundecino[8,7,6-hi]indole-8-carboxylic Acid]",> 3.3e-05,,,,> 3.3e-05,

# From US10981932B2, “Macrocyclic indole derivatives” (Bayer Aktiengesellschaft, priority 2016, dated 2021)
